Patent publication US20110183969A1, “ANTIFUNGAL COMBINATION THERAPY” (priority 2008, published 2011)
Converted amounts (≈) assume the structure as drawn.

Experiments:
Test in all cases: MIC (YAG medium)
Type in all cases: cell-based
Aspergillus flavus = settings: YAG medium, MIC banded into grades; for MIC: Aspergillus flavus, read-out: MIC A. flavus (grade)
Summary of the method: (§1)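 OD 485 nm read-out after 24 h, 35° C; MIC = lowest concentration inhibiting growth >70% vs drug-free control, in mg/L. Medium YAG (1% glucose, 1% NH4Cl, 0.5% yeast extract); inoculum 1-2×10^4 cfu/mL; compound range 50-0.05 mg/L, repeated at 0.5-0.0005 mg/L […].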

[1] = tested on: Aspergillus fumigatus AF293; settings: YAG medium, MIC banded into grades, AF293; for MIC: Aspergillus fumigatus, read-out: MIC A. fumigatus (grade)
Summary of the method: as §1

[2] = tested on: Aspergillus fumigatus AF210; settings: YAG medium, MIC banded into grades, AF210; for MIC: Aspergillus fumigatus, read-out: MIC A. fumigatus 210 (grade)
Summary of the method: as §1

Aspergillus terreus AT49 = settings: YAG medium, MIC banded into grades, AT49; for MIC: Aspergillus terreus, read-out: MIC A. terreus 49 (grade)
Summary of the method: as §1

Aspergillus terreus AT4 = settings: YAG medium, MIC banded into grades, AT4; for MIC: Aspergillus terreus, read-out: MIC A. terreus (grade)
Summary of the method: as §1

Aspergillus niger = settings: YAG medium, MIC banded into grades; for MIC: Aspergillus niger, read-out: MIC A. niger (grade)
Summary of the method: as §1

Row | MIC (Aspergillus flavus) | MIC [1] | MIC [2] | MIC (Aspergillus terreus AT49) | MIC (Aspergillus terreus AT4) | MIC (Aspergillus niger) | Compound | MIC A. flavus (grade) (Aspergillus flavus) | MIC A. fumigatus (grade) [1] | MIC A. fumigatus 210 (grade) [2] | MIC A. terreus 49 (grade) (Aspergillus terreus AT49) | MIC A. terreus (grade) (Aspergillus terreus AT4) | MIC A. niger (grade) (Aspergillus niger)
1 | > 10 µg/mL | > 10 µg/mL | > 10 µg/mL | > 10 µg/mL | > 10 µg/mL | > 10 µg/mL | Cc1cc(C)nc(N2CCC(O)(c3ccc(NC(=O)C(=O)c4c(-c5ccccc5)cc5ccccn45)cc3)CC2)c1 [Example 79, N-[4-(4-hydroxy-4′,6′-dimethyl-3,4,5,6-tetrahydro-2H-[1,2′]-bipyridinyl-4-yl)-phenyl]-2-oxo-2-(2-phenyl-indolizin-3-yl)-acetamide] |  |  |  |  |  | 
2 | 1 to 10 µg/mL (≈ 2.11 to 21.1 µM) | > 10 µg/mL | > 10 µg/mL | > 10 µg/mL | 1 to 10 µg/mL (≈ 2.11 to 21.1 µM) | > 10 µg/mL | O=C(Nc1ccc(N2CCS(=O)(=O)CC2)cc1)C(=O)c1c(-c2ccccc2)cc2ccccn12 [Example 1, N-[4-(1,1-Dioxo-1λ^6-thiomorpholin-4-yl)-phenyl]-2-oxo-2-(2-phenyl-indolizin-3-yl)-acetamide] |  |  |  |  |  | 
3 | < 1 µg/mL | < 1 µg/mL | < 1 µg/mL | < 1 µg/mL | < 1 µg/mL | < 1 µg/mL | Cc1cc(C)nc(N2CCN(c3ccc(NC(=O)C(=O)c4c(C5CCCCC5)cc5ccccn45)cc3)CC2)c1 [Example 60, 2-(2-Cyclohexyl-indolizin-3-yl)-N-{4-[4-(4,6-dimethyl-pyridin-2-yl)-piperazin-1-yl]-phenyl}-2-oxo-acetamide] |  |  |  |  |  | 
4 | > 10 µg/mL | > 10 µg/mL | > 10 µg/mL | 1 to 10 µg/mL (≈ 2.14 to 21.4 µM) | > 10 µg/mL | > 10 µg/mL | CN1/C(=N/c2ccc(NC(=O)C(=O)c3c(-c4ccccc4)cc4ccccn34)cc2)OCC1(C)C [Example 8, 2-oxo-2-(2-phenyl-indolizin-3-yl)-N-{4-[3,4,4-trimethyl-oxazolidin-(2Z)-ylideneamino]-phenyl}-acetamide] |  |  |  |  |  | 

Second part, the compound before the results:

Row | Compound | MIC (Aspergillus flavus) | MIC [1] | MIC [2] | MIC (Aspergillus terreus AT49) | MIC (Aspergillus terreus AT4) | MIC (Aspergillus niger) | MIC A. flavus (grade) (Aspergillus flavus) | MIC A. fumigatus (grade) [1] | MIC A. fumigatus 210 (grade) [2] | MIC A. terreus 49 (grade) (Aspergillus terreus AT49) | MIC A. terreus (grade) (Aspergillus terreus AT4) | MIC A. niger (grade) (Aspergillus niger)
5 | O=C(Nc1ccc(N2CCN(c3ccccn3)CC2)cc1)C(=O)c1c(-c2ccccc2)cc2ccc(F)cn12 [Example 42, 2-(6-Fluoro-2-phenyl-indolizin-3-yl)-2-oxo-N-[4-(4-pyridin-2-yl-piperazin-1-yl)phenyl] acetamide] |  |  |  |  |  |  | 3 (A grade of 3 represents an MIC of less than 1 mg/L) | 3 (A grade of 3 represents an MIC of less than 1 mg/L) | 3 (A grade of 3 represents an MIC of less than 1 mg/L) | 3 (A grade of 3 represents an MIC of less than 1 mg/L) | 3 (A grade of 3 represents an MIC of less than 1 mg/L) | 3 (A grade of 3 represents an MIC of less than 1 mg/L)
6 | Cc1cc(NC(=O)C(=O)c2c(-c3ccccc3)cc3ccccn23)ccc1OCCCn1ccnc1C(C)C [Example 12, N-{4-[3-(2-Isopropyl-imidazol-1-yl)-propoxy]-3-methyl-phenyl}-2-oxo-2-(2-phenyl-indolizin-3-yl)-acetamide] | < 1 µg/mL | 1 to 10 µg/mL (≈ 1.92 to 19.2 µM) | 1 to 10 µg/mL (≈ 1.92 to 19.2 µM) | 1 to 10 µg/mL (≈ 1.92 to 19.2 µM) | 1 to 10 µg/mL (≈ 1.92 to 19.2 µM) | > 10 µg/mL |  |  |  |  |  | 
7 | O=C(Nc1cnccc1N1CCN(Cc2cccs2)CC1)C(=O)c1c(-c2ccccc2)cc2ccccn12 [Example 37, 2-Oxo-2-(2-phenyl-indolizin-3-yl)-N-[4-{4-thiophen-2-ylmethyl-piperazin-1-yl}-pyridine-3-yl]-acetamide] | < 1 µg/mL | < 1 µg/mL | < 1 µg/mL | < 1 µg/mL | < 1 µg/mL | < 1 µg/mL |  |  |  |  |  | 
8 | CCC(CC)N1CCN(c2ccc(NC(=O)C(=O)c3c(-c4ccccc4Cl)cc4ccccn34)cn2)CC1 [Example 10, 2-[2-(2-chloro-phenyl)-indolizin-3-yl]-N-{6-[4-(1-ethyl-propyl)-piperazin-1-yl]-pyridin-3-yl}-2-oxo-acetamide] | < 1 µg/mL | < 1 µg/mL | < 1 µg/mL | < 1 µg/mL | < 1 µg/mL | < 1 µg/mL |  |  |  |  |  | 
